From PubChem BioAssay (NCI)
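96-well plates; 48 h exposure; 5 concentrations. Endpoints by linear interpolation between flanking doses. Not reached: highest tested concentration assigned. GI50 marks 50% less growth. TGI marks complete inhibition of growth.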

Legend:
Test in all cases: DTP human tumour cell line panel, 48 h
[1] = tested on: SK-OV-3 ovarian
[2] = tested on: HCC-2998 colon
[3] = tested on: CCRF-CEM leukemia
[4] = tested on: OVCAR-5 ovarian
[5] = tested on: SR leukemia
[6] = tested on: EKVX NSCLC
[7] = tested on: M14 melanoma
[8] = tested on: UACC-62 melanoma
[9] = tested on: SN12C renal
[10] = tested on: HT29 colon
[11] = tested on: MCF7 breast
[12] = tested on: OVCAR-4 ovarian
[13] = tested on: KM12 colon
[14] = tested on: SF-295 CNS
[15] = tested on: SW-620 colon
[16] = tested on: OVCAR-8 ovarian
[17] = tested on: NCI/ADR-RES ovarian
[18] = tested on: UACC-257 melanoma
[19] = tested on: MDA-MB-231 breast
[20] = tested on: IGROV1 ovarian
[21] = tested on: SK-MEL-5 melanoma
[22] = tested on: HCT-116 colon
[23] = tested on: A549 NSCLC
[24] = tested on: SK-MEL-28 melanoma
[25] = tested on: HCT-15 colon
[26] = tested on: K-562 leukemia
[27] = tested on: T-47D breast
[28] = tested on: BT-549 breast
[29] = tested on: TK-10 renal
[30] = tested on: RPMI-8226 leukemia
[31] = tested on: MOLT-4 leukemia
[32] = tested on: LOX IMVI melanoma
[33] = tested on: PC-3 prostate
[34] = tested on: HOP-92 NSCLC
[35] = tested on: OVCAR-3 ovarian
[36] = tested on: SNB-19 CNS
[37] = tested on: HL-60(TB) leukemia
[38] = tested on: SF-539 CNS
[39] = tested on: NCI-H522 lung
[40] = tested on: HOP-62 NSCLC
[41] = tested on: NCI-H460 lung
[42] = tested on: A498 renal
[43] = tested on: HS 578T breast
[44] = tested on: RXF 393 renal
[45] = tested on: CAKI-1 renal
[46] = tested on: SF-268 CNS
[47] = tested on: SNB-75 CNS
[48] = tested on: ACHN renal
[49] = tested on: DU-145 prostate
[50] = tested on: MALME-3M melanoma
[51] = tested on: COLO 205 colon
[52] = tested on: U251 CNS
[53] = tested on: UO-31 renal
[54] = tested on: NCI-H23 lung
[55] = tested on: SK-MEL-2 melanoma
[56] = tested on: 786-0 renal

COc1ccc2c(c1OC)C(=O)OC2C1c2c(c(N)c3c(c2OC)OCO3)CCN1C (configuration not stated)
GI50 [1]: 3.23 µM
TGI [1]: 23.4 µM
GI50 [2]: 6.86 µM
TGI [2]: 28.2 µM
GI50 [3]: 2.63 µM
TGI [3]: 8.44 µM
GI50 [4]: 9.35 µM
TGI [4]: 38.8 µM
GI50 [5]: 3.18 µM
TGI [5]: 29.2 µM
GI50 [6]: 5.18 µM
TGI [6]: > 100 µM
GI50 [7]: 1.86 µM
TGI [7]: 4.41 µM
GI50 [8]: 4.04 µM
TGI [8]: > 100 µM
GI50 [9]: 4.46 µM
TGI [9]: 21.9 µM
GI50 [10]: 3.96 µM
TGI [10]: 52.8 µM
GI50 [11]: 3.11 µM
TGI [11]: 16.1 µM
GI50 [12]: 5.33 µM
TGI [12]: > 100 µM
GI50 [13]: 3.33 µM
TGI [13]: 62.7 µM
GI50 [14]: 5.59 µM
TGI [14]: 61.8 µM
GI50 [15]: 3.26 µM
TGI [15]: > 100 µM
GI50 [16]: 3.94 µM
TGI [16]: 35.2 µM
GI50 [17]: 1.58 µM
TGI [17]: 3.2 µM
GI50 [18]: 27.3 µM
TGI [18]: > 100 µM
GI50 [19]: 3.15 µM
TGI [19]: 20.7 µM
GI50 [20]: 1.68 µM
TGI [20]: 6.68 µM
GI50 [21]: 3.03 µM
TGI [21]: 13.2 µM
GI50 [22]: 3.19 µM
TGI [22]: 14.6 µM
GI50 [23]: 6.23 µM
TGI [23]: > 100 µM
GI50 [24]: 8.71 µM
TGI [24]: > 100 µM
GI50 [25]: 2.64 µM
TGI [25]: 8.38 µM
GI50 [26]: 4.43 µM
TGI [26]: > 100 µM
GI50 [27]: 2.63 µM
TGI [27]: 19.6 µM
GI50 [28]: 2.32 µM
TGI [28]: 9.12 µM
GI50 [29]: 6.57 µM
TGI [29]: > 100 µM
GI50 [30]: 3.04 µM
TGI [30]: 12.2 µM
GI50 [31]: 4.96 µM
TGI [31]: > 100 µM
GI50 [32]: 4.8 µM
TGI [32]: 24 µM
GI50 [33]: 3.42 µM
TGI [33]: > 100 µM
GI50 [34]: 12.2 µM
TGI [34]: 59.3 µM
GI50 [35]: 4.01 µM
TGI [35]: 34.6 µM
GI50 [36]: 2.7 µM
TGI [36]: 9.25 µM
GI50 [37]: 4.02 µM
TGI [37]: 26.4 µM
GI50 [38]: 2.11 µM
TGI [38]: 5.53 µM
GI50 [39]: 2.07 µM
TGI [39]: 5.3 µM
GI50 [40]: 5.15 µM
TGI [40]: > 100 µM
GI50 [41]: 3.37 µM
TGI [41]: 11.6 µM
GI50 [42]: 2.44 µM
TGI [42]: 13.3 µM
GI50 [43]: 2.75 µM
TGI [43]: 9.39 µM
GI50 [44]: 4.25 µM
TGI [44]: > 100 µM
GI50 [45]: 3.81 µM
TGI [45]: > 100 µM
GI50 [46]: 4.57 µM
TGI [46]: 23 µM
GI50 [47]: 2.83 µM
TGI [47]: 11.9 µM
GI50 [48]: 6.75 µM
TGI [48]: > 100 µM
GI50 [49]: 2.8 µM
TGI [49]: 12 µM
GI50 [50]: 6.51 µM
TGI [50]: > 100 µM
GI50 [51]: 5.6 µM
TGI [51]: 26 µM
GI50 [52]: 3.94 µM
TGI [52]: > 100 µM
GI50 [53]: 5.28 µM
TGI [53]: 92.8 µM
GI50 [54]: 4.74 µM
TGI [54]: > 100 µM
GI50 [55]: 3.17 µM
TGI [55]: 28.2 µM
GI50 [56]: 7.51 µM
TGI [56]: > 100 µM
